These are literature values, as cited in article PMC9010257 (Clinical and Translational Science, 2022).

For this data set, the system named is TNAP.

For `c1ccc([C@H]2CN3CCSC3=N2)cc1` [levamisole], the inhibitory activity result is given as “weak inhibitory activity” and the “specificity for TNAP” value is recorded as “not specific for TNAP”.

As for `Cn1c(=O)c2[nH]cnc2n(C)c1=O` [theophylline], the inhibitory activity entry was “weak inhibitory activity” and the “specificity for TNAP” value is listed as “not specific for TNAP”.
